Measurements as given in ChEMBL document CHEMBL4673357, “Antimicrobial Furancarboxylic Acids from a Penicillium sp” (2020).

Legend:
Type in all cases: functional
Staphylococcus aureus = experiment: Antibacterial activity against Staphylococcus aureus ATCC 25923 assessed as reduction in microbial growth after 18 hrs by microbroth dilution method
Escherichia coli = experiment: Antibacterial activity against Escherichia coli ATCC 35218 assessed as reduction in microbial growth after 18 hrs by microbroth dilution method
Candida albicans = experiment: Antifungal activity against Candida albicans ATCC 10231 assessed as reduction in microbial growth after 18 hrs by microbroth dilution method

**Q.** For CN[C@@H]1[C@H](O[C@H]2[C@H](O[C@H]3[C@H](O)[C@@H](O)[C@H](N=C(N)N)[C@@H](O)[C@@H]3N=C(N)N)O[C@@H](C)[C@]2(O)C=O)O[C@@H](CO)[C@H](O)[C@H]1O [STREPTOMYCIN], which MIC (Staphylococcus aureus) is on record?
**A.** 0.1 µg/mL

**Q.** And the MIC (Escherichia coli)?
**A.** 2.3 µg/mL

**Q.** How did the MIC (Staphylococcus aureus) turn out when COC(=O)C1=C(c2ccsc2C)O[C@](C)(/C=C/CC[C@@H](C)O)C1=O was run?
**A.** 3.5 µg/mL

**Q.** And the MIC (Candida albicans)?
**A.** 7 µg/mL

**Q.** What about the MIC (Escherichia coli) of the same molecule?
**A.** 3.5 µg/mL

**Q.** Which MIC (Staphylococcus aureus) does the source give for CCCC1=C(C(=O)OC)C(=O)[C@@](C)(/C=C/C=C/[C@H](C)O)O1 here?
**A.** 2.9 µg/mL

**Q.** And the MIC (Candida albicans)?
**A.** 4.4 µg/mL

**Q.** What about the MIC (Escherichia coli) of the same molecule?
**A.** 2.9 µg/mL

**Q.** Which results are given for CCCC1=C(C(=O)OC)C(=O)[C@@](C)(/C=C/CC[C@H](C)O)O1?
**A.** MIC (Staphylococcus aureus): 3 µg/mL; MIC (Candida albicans): 5.9 µg/mL; MIC (Escherichia coli): 3 µg/mL

**Q.** Which MIC (Staphylococcus aureus) does the source give for CC/C=C/C=C/[C@@]1(C)OC(c2cc(C(=O)O)sc2C)=C(C(=O)OC)C1=O here?
**A.** 1.9 µg/mL

**Q.** What about the MIC (Candida albicans) of the same molecule?
**A.** 3.8 µg/mL

**Q.** What about the MIC (Escherichia coli) of the same molecule?
**A.** 0.9 µg/mL

**Q.** For C[C@@H]1[C@H](O)[C@@H](C)/C=C/C=C/C=C/C=C/C=C/C=C/C=C/[C@H](O[C@@H]2O[C@H](C)[C@@H](O)[C@H](N)[C@@H]2O)C[C@@H]2O[C@](O)(C[C@@H](O)C[C@@H](O)[C@H](O)CC[C@@H](O)C[C@@H](O)CC(=O)O[C@H]1C)C[C@H](O)[C@H]2C(=O)O [AMPHOTERICIN B], which MIC (Candida albicans) is on record?
**A.** 0.1 µg/mL

**Q.** With COC(=O)C1=C(C)O[C@](C)(/C=C/CC[C@@H](C)O)C1=O as the molecule, how does the MIC (Staphylococcus aureus) read?
**A.** 2.7 µg/mL

**Q.** And the MIC (Candida albicans)?
**A.** 5.4 µg/mL

**Q.** What about the MIC (Escherichia coli) of the same molecule?
**A.** 5.4 µg/mL

**Q.** Which MIC (Staphylococcus aureus) does the source give for COC(=O)C1=C(C)O[C@](C)(/C=C/CC[C@H](C)O)C1=O here?
**A.** 2.7 µg/mL

**Q.** What about the MIC (Candida albicans) of the same molecule?
**A.** 5.4 µg/mL

**Q.** What about the MIC (Escherichia coli) of the same molecule?
**A.** 5.4 µg/mL

**Q.** COC(=O)C1=C(c2ccsc2C)O[C@](C)(/C=C/C=C/[C@H](C)O)C1=O was tested. Which MIC (Staphylococcus aureus) did it give?
**A.** 3.5 µg/mL

**Q.** What about the MIC (Candida albicans) of the same molecule?
**A.** 7 µg/mL

**Q.** And the MIC (Escherichia coli)?
**A.** 7 µg/mL

**Q.** What does the source list for CCCC1=C(C(=O)OC)C(=O)[C@@](C)(/C=C/CC[C@@H](C)O)O1?
**A.** MIC (Staphylococcus aureus): 3 µg/mL; MIC (Candida albicans): 5.9 µg/mL; MIC (Escherichia coli): 3 µg/mL

**Q.** With CCCC1=C(C(=O)OC)C(=O)[C@@](C)(/C=C/C=C/[C@@H](C)O)O1 as the molecule, how does the MIC (Staphylococcus aureus) read?
**A.** 2.9 µg/mL

**Q.** And the MIC (Candida albicans)?
**A.** 4.4 µg/mL

**Q.** What about the MIC (Escherichia coli) of the same molecule?
**A.** 2.9 µg/mL

**Q.** For COC(=O)C1=C(c2ccsc2C)O[C@](C)(/C=C/CC[C@H](C)O)C1=O, which MIC (Staphylococcus aureus) is on record?
**A.** 3.5 µg/mL

**Q.** And the MIC (Candida albicans)?
**A.** 7 µg/mL

**Q.** And the MIC (Escherichia coli)?
**A.** 3.5 µg/mL

**Q.** CC/C=C/C=C/[C@@]1(C)OC(c2ccsc2C)=C(C(=O)OC)C1=O was tested. Which MIC (Staphylococcus aureus) did it give?
**A.** 1.7 µg/mL

**Q.** And the MIC (Candida albicans)?
**A.** 3.3 µg/mL

**Q.** And the MIC (Escherichia coli)?
**A.** 1.7 µg/mL

**Q.** Which results are given for COC(=O)C1=C(c2ccsc2C)O[C@](C)(/C=C/C=C/[C@@H](C)O)C1=O?
**A.** MIC (Staphylococcus aureus): 3.5 µg/mL; MIC (Candida albicans): 7 µg/mL; MIC (Escherichia coli): 7 µg/mL
